Publication PMC4427029 (Cell, 2015)
Where two headings read alike, the source gives them in different places. Each block holds one molecule with its values, some of them ahead of it.

Tests used:
[1] = system: AT1R; conditions: cited from earlier work
[2] = system: AT1R single mutants; assay: Ligand binding assays on AT1R single mutants, COS-1 cell membranes; conditions: residues Tyr35, Trp84, Arg167 and Lys199
[3] = molecular target: T1, AT1R single mutants (Homo sapiens, UniProt P30556, P285A); assay: as above; conditions: Pro285Ala mutant
T1 sequence (P30556 1-359 P285A): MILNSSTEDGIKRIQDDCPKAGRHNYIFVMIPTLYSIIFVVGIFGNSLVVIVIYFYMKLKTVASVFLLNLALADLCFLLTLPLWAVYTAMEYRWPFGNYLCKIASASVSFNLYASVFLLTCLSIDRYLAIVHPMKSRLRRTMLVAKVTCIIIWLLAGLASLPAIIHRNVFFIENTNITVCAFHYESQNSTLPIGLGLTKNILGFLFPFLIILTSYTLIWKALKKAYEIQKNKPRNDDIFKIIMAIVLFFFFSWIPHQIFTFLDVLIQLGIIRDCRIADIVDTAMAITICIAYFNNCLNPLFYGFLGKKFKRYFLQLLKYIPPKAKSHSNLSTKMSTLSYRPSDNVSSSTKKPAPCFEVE

Molecule: CCCCc1nc(Cl)c(CO)n1Cc1ccc(-c2ccccc2-c2nn[nH]n2)cc1 [Losartan, losartan]
binding affinity to AT1R compared to the later developed ARBs ([1]; ref Miura et al., 2011): lower
mode of antagonism ([1]; ref Miura et al., 2011): surmountable antagonist

Molecule: CCc1cc2c(c(CC)n1)CCC(=O)N2Cc1ccc(-c2ccccc2-c2nn[nH]n2)cc1 [ZD7155]
potency and duration compared with losartan ([1]; ref Junggren et al., 1996): more potent and longer-lasting

Molecule: CCOc1nc2cccc(C(=O)O)c2n1Cc1ccc(-c2ccccc2-c2nnn[nH]2)cc1 [candesartan]
dissociation rate from AT1R ([1]; ref Takezako et al., 2004): slow
mode of antagonism ([1]; ref Takezako et al., 2004): insurmountable inverse agonist
role of residues for binding (mutagenesis) [2]: critical

change of binding affinity at mutant [3]: strong decrease
Molecule: CCCCc1ncc(/C=C(\Cc2cccs2)C(=O)O)n1Cc1ccc(C(=O)O)cc1 [eprosartan]

Molecule: [Sar^1, Ile^8]-AngII
role of residues for binding (mutagenesis) [2]: critical
